For this experiment, the target named is full-length PI3Kα (full-length p110α/p85α) (Homo sapiens (Human), UniProt P42336). Description: PI3KA_FL fluorescence polarization kinase assay (Ki). As to conditions: 41 μM ATP. The experiment is classed as biochemical. The text has this:
Enzyme Production for Biochemical Assays: 1) PI3Kα Complex (Full Length p110α and p85α)(“PI3KA_FL”)
Genes encoding for full length p110α and p85α subunits of PI3Kα complex were subcloned from existing constructs into pFASTBAC Dual vector (Life Technologies, Carlsbad, Calif.) using standard cloning procedures. Gene encoding p110α subunit was subcloned into polyhedrine promoter while gene encoding p85α subunit was subcloned into p10 promoter. Additionally, sequence encoding for histidine tag and Tobacco Etch Virus (“TEV”) cleavage site preceded p110α ORF (Open Reading Frame). Recombinant baculovirus was generated using Bac-to-Bac protocol (Life Technologies, Carlsbad, Calif.) and large scale expression was conducted in Sf21 (Life Technologies, Carlsbad, Calif.) cells at a multiplicity of infection (“MOI”)=1 for 72 hours. Cells were lyzed in 50 mM Tris pH 8.0, 250 mM NaCl, 5% glycerol, 0.25 mM TCEP, and 20 mM imidazole. The PI3Kα complex was purified from clarified supernatant using Immobilized Metalo Affinity Chromatography (“IMAC”). The protein was eluted from the column using 50 mM Tris pH 8.0, 200 mM NaCl, 5% glycerol, 0.25 mM TCEP, and 200 mM imidazole, and further desalted into 50 mM Tris pH 8.0, 20 mM NaCl, and 0.25 mM TCEP prior to loading on MonoQ sepharose (GE Healthcare, Piscataway, N.J.). PI3Kα complex was eluted from MonoQ sepharose over 20 column volumes using 0-30% gradient of buffer B (50 mM Tris pH 8.0, 1 M NaCl, and 0.25 mM TCEP). The peak fractions were pulled together and loaded on Superdex 200 26/60 SEC column equilibrated in 50 mM Tris pH 8.0, 200 mM NaCl, and 0.5 mM TCEP. […] Purity and integrity of the complex was confirmed using LCMS, analytical SEC and SDS-PAGE (sodium dodecyl sulfate polyacrylamide gel electrophoresis) analysis.
The biochemical assays of kinase activity of full-length PI3Kα (full-length p110α/p85a) or truncated PI3Kα (p110α/iSH2 p85a) were conducted using a fluorescence polarization format similar to the procedure of Yuan J., et al., (2011) “PF-04691502, a Potent and Selective Oral Inhibitor of PI3K and mTOR Kinases with Antitumor Activity”, Mol Cancer Ther. 10, 2189-2199. The enzymatic reactions were conducted in 50 μL volumes in 96-well plates. The reactions contained human recombinant PI3Kα (2 nM full-length p110α/p85α or 0.5 nM p110α/iSH2 p85) and 30 μM phosphatidylinositol 4,5-bisphosphate (“PIP2”) (Cayman Chemical Company, Ann Arbor, Mich.) and were sonicated for 1 minute prior to adding PI3Kα enzyme (PI3KA_Act or PI3KA_FL), DMSO or test compound (12-point 3-fold serial dilution, 3 μM top dose, 2° A) DMSO final concentration), 5 mM MgCl2, 50 mM HEPES pH 7.4, 150 mM NaCl, 1 mM DTT ((2S,3S)-1,4-bis(sulfanyl)butane-2,3-diol), and 0.05% 3-[(3-cholamidopropyl)dimethylammonio]-1-propanesulfonate (“CHAPS”). […] The reactions were incubated for 30 min at room temperature, stopped with EDTA pH 8 (10 mM final concentration). In a detection plate, 15 μL of detector/probe mixture, containing 480 nM GST-Grp1 PH domain protein (University of Dundee, Dundee, UK) and 12 nM carboxytetramethylrhodamine (“TAMRA”)-tagged fluorescent phosphatidylinositol (3,4,5)-triphosphate (“PIP3”) (Echelon Biosciences, Inc., Salt Lake City, Utah) in assay buffer, was mixed with 15 μL of kinase reaction mixture. The plate was shaken for 30 minutes and fluorescence polarization values were measured on an LJL Analyst HT plate reader (Molecular Devices, Sunnyvale, Calif.). […] The inhibition constants (Ki) were calculated by fitting fluorescence polarization values, corresponding to initial reaction rates, to the Morrison equation (Morrison, J. F. (1969) Kinetics of the reversible inhibition of enzyme catalysed reactions by tight-binding inhibitors. Biochim. Biophys. Acta 185, 269-286) for tight-binding competitive inhibitors using non-linear regression method (GraphPad Prism, GraphPad Software, San Diego, Calif.).
On the technique in general: Polarisation of emitted light reports the rotation of a fluorescent probe.

Sequence of full-length PI3Kα (full-length p110α/p85α) (P42336 whole entry): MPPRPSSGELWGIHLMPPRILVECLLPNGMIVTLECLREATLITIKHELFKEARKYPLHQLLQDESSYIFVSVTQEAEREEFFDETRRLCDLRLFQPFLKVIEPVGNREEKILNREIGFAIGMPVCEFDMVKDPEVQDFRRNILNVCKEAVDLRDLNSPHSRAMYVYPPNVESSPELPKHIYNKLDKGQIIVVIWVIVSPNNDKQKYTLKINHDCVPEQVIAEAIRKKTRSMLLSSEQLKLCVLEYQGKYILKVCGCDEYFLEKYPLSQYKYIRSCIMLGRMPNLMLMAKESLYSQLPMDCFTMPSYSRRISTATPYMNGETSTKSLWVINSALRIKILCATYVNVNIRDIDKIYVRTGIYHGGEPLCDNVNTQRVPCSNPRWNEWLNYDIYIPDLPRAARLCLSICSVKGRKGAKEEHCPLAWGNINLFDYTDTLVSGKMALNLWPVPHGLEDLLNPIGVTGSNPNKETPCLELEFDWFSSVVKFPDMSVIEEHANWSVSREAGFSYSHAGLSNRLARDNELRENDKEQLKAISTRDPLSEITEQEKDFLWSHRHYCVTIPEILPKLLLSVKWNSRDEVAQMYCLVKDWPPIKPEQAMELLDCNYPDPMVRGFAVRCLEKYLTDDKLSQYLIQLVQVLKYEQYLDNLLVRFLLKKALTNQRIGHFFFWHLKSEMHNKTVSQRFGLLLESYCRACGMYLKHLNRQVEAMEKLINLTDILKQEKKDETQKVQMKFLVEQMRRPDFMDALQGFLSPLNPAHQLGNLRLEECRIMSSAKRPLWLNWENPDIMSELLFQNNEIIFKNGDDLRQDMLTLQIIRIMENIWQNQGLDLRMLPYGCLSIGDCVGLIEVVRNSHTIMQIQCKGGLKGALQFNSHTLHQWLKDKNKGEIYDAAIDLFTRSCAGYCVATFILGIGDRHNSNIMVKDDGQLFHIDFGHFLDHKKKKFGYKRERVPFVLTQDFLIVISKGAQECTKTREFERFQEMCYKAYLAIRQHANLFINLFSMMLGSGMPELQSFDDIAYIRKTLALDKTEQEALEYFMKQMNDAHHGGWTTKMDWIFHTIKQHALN
Sequence of full-length PI3Kα (full-length p110α/p85α) (P27986 whole entry partner): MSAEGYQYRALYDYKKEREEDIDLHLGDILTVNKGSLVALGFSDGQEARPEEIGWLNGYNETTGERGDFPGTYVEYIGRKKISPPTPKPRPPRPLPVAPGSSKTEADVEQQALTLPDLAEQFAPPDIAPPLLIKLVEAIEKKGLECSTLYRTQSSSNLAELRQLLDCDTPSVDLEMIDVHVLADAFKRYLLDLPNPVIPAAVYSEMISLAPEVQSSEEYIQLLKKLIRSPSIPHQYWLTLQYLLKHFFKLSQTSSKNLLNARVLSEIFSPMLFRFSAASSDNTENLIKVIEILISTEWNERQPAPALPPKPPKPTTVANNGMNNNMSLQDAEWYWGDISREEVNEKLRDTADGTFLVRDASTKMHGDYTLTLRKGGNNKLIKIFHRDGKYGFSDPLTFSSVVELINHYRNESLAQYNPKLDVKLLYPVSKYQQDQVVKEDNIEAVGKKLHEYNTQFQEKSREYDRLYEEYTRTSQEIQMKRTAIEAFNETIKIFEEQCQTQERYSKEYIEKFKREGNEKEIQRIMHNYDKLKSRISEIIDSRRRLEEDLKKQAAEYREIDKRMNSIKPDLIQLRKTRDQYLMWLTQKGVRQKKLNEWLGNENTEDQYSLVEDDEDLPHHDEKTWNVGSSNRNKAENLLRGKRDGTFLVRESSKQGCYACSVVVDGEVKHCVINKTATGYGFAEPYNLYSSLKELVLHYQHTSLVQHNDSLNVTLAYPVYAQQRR

As for `CNC(=O)N1CC[C@H](N2CCc3c(-c4cnc(N)nc4)nc(N4CCOCC4)nc32)C1` [Example 27], the “PI3KA_FL Ki” value was determined as 1.025 nM.

With `COC(=O)N1CC[C@H](N2CCc3c(-c4cnc(N)nc4)nc(N4CCOCC4)nc32)C1` [Example 28], the “PI3KA_FL Ki” value was determined as 0.521 nM.

For the compound `CC(=O)N[C@H]1C[C@H](N2CCc3c(-c4cnc(N)nc4)nc(N4CCOCC4)nc32)C1` [Example 29], the “PI3KA_FL Ki” value was determined as 5.828 nM.

`C[C@H](O)C(=O)N1CC[C@H](N2CCc3c(-c4cnc(N)nc4)nc(N4CCOCC4)nc32)C1` [Example 30]: the “PI3KA_FL Ki” value turned out to be 1.188 nM.

For the compound `CC(C)[C@@H](O)C(=O)N1CC[C@H](N2CCc3c(-c4cnc(N)nc4)nc(N4CCOCC4)nc32)C1` [Example 31], the “PI3KA_FL Ki (nM)” value is “≦0.229 nM”.

On to `CC(C)[C@H](O)C(=O)N1CC[C@H](N2CCc3c(-c4cnc(N)nc4)nc(N4CCOCC4)nc32)C1` [Example 32], for which the “PI3KA_FL Ki” value is reported as 0.841 nM.

On to `CC(=O)N1CC(N2CCc3c(-c4cnc(N)nc4)nc(N4CCOCC4)nc32)C1` [Example 33], for which the “PI3KA_FL Ki” value is recorded as 5.195 nM.

Regarding `CO[C@H]1CC[C@H](N2CCc3c(-c4cnc(N)nc4)nc(N4CCOCC4)nc32)CC1` [Example 36], the “PI3KA_FL Ki” value is 19.031 nM.

On to `C[C@]1(O)C[C@H](N2CCc3c(-c4cnc(N)nc4)nc(N4CCOCC4)nc32)C1` [Example 39], for which the “PI3KA_FL Ki” value was determined as 0.738 nM.

As for `CO[C@H]1C[C@H](N2CCc3c(-c4cnc(N)nc4)nc(N4CCOCC4)nc32)C1` [Example 40], the “PI3KA_FL Ki” value was determined as 0.416 nM.

On to `C[C@@H](O)C(=O)N1CC[C@H](N2CCc3c(-c4cnc(N)nc4)nc(N4CCOCC4)nc32)C1` [Example 41], for which the “PI3KA_FL Ki” value was 1.376 nM.

`CC(=O)N[C@H]1C(C)(C)[C@@H](N2CCc3c(-c4cnc(N)nc4)nc(N4CCOCC4)nc32)C1(C)C` [Example 42]: the “PI3KA_FL Ki” value was found to be 7.677 nM.

`Nc1ncc(-c2nc(N3CCOCC3)nc3c2CCN3[C@H]2CCN(C=O)C2)cn1` [Example 43]: the “PI3KA_FL Ki” value worked out at 1.310 nM.

In the case of `C[C@]1(O)C[C@@H](N2CCc3c(-c4cnc(N)nc4)nc(N4CCOCC4)nc32)C1` [Example 44], the “PI3KA_FL Ki” value is listed as 1.965 nM.

With `Nc1ncc(-c2nc(N3CCOCC3)nc3c2CCN3[C@H]2CCCOC2)cn1` [Example 47], the “PI3KA_FL Ki” value was 3.320 nM.

Consider `Nc1ncc(-c2nc(N3CCOCC3)nc3c2CCN3[C@@H]2CCCOC2)cn1` [Example 48], for which the “PI3KA_FL Ki” value came to 3.543 nM.

On to `CN([C@H]1C[C@@H](N2CCc3c(-c4cnc(N)nc4)nc(N4CCOCC4)nc32)C1)S(C)(=O)=O` [Example 49], for which the “PI3KA_FL Ki” value is given as 0.722 nM.

Consider `CC(=O)N[C@@H]1CC[C@H]1N1CCc2c(-c3cnc(N)nc3)nc(N3CCOCC3)nc21` [Example 50], for which the “PI3KA_FL Ki” value came out at 18.596 nM.

Take `CC(=O)N1C[C@@H](N2CCc3c(-c4cnc(N)nc4)nc(N4CCOCC4)nc32)[C@@H](C)C1` [Example 52]: the “PI3KA_FL Ki” value was found to be 2.799 nM.

With `Nc1ncc(-c2nc(N3CCOCC3)nc3c2CCN3[C@H]2C[C@H](C(N)=O)C2)cn1` [Example 53], the “PI3KA_FL Ki” value was determined as 0.774 nM.

As for `CC(=O)N1CCC[C@H](N2CCc3c(-c4cnc(N)nc4)nc(N4CCOCC4)nc32)C1` [Example 54], the “PI3KA_FL Ki” value was determined as 8.634 nM.

`CC(=O)N1CCC[C@@H](N2CCc3c(-c4cnc(N)nc4)nc(N4CCOCC4)nc32)C1` [Example 55]: the “PI3KA_FL Ki” value came to 3.904 nM.

For `CC(=O)N1C[C@H](C(F)F)[C@H](N2CCc3c(-c4cnc(N)nc4)nc(N4CCOCC4)nc32)C1` [Example 56], the “PI3KA_FL Ki” value is on record as 35.745 nM.

Regarding `NC(=O)N1CC[C@H](N2CCc3c(-c4cnc(N)nc4)nc(N4CCOCC4)nc32)C1` [Example 58], the “PI3KA_FL Ki” value was found to be 0.794 nM.

For `CC(=O)N1C[C@@H](C(F)F)[C@@H](N2CCc3c(-c4cnc(N)nc4)nc(N4CCOCC4)nc32)C1` [Example 60], the “PI3KA_FL Ki” value came to 27.752 nM.

For `Nc1ncc(-c2nc(N3CCOCC3)nc3c2CCN3C2CN(C=O)C2)cn1` [Example 62], the “PI3KA_FL Ki” value is listed as 0.888 nM.

Consider `CC(=O)N1C[C@@H](N2CCc3c(-c4cnc(N)nc4)nc(N4CCOCC4)nc32)[C@H](C(F)F)C1` [Example 63], for which the “PI3KA_FL Ki” value is on record as 6.612 nM.

With `Nc1ncc(-c2nc(N3CCOCC3)nc3c2CCN3[C@H]2C[C@@H](F)C2)cn1` [Example 64], the “PI3KA_FL Ki” value was 0.508 nM.

Consider `Nc1ncc(-c2nc(N3CCOCC3)nc3c2CCN3[C@H]2C[C@H](F)C2)cn1` [Example 65], for which the “PI3KA_FL Ki (nM)” value is “≦0.229 nM”.

Regarding `CC(=O)N1C[C@@H](C)[C@@H](N2CCc3c(-c4cnc(N)nc4)nc(N4CCOCC4)nc32)C1` [Example 68], the “PI3KA_FL Ki” value was 9.393 nM.

`CC(=O)N[C@H]1CC[C@@H]1N1CCc2c(-c3cnc(N)nc3)nc(N3CCOCC3)nc21` [Example 70]: the “PI3KA_FL Ki” value is given as 4.601 nM.

In the case of `CC(=O)N1C[C@H](C(F)F)[C@@H](N2CCc3c(-c4cnc(N)nc4)nc(N4CCOCC4)nc32)C1` [Example 71], the “PI3KA_FL Ki” value came out at 8.899 nM.

Turning to `Nc1ncc(-c2nc(N3CCOCC3)nc3c2CCN3[C@@H]2CCNC(=O)C2)cn1` [Example 77], the “PI3KA_FL Ki” value came to 8.025 nM.

Consider `Nc1ncc(-c2nc(N3CCOCC3)nc3c2CCN3[C@H]2CCNC(=O)C2)cn1` [Example 78], for which the “PI3KA_FL Ki” value is 14.681 nM.

For the compound `CS(=O)(=O)N1CC[C@@H](N2CCc3c(-c4cnc(N)nc4)nc(N4CCOCC4)nc32)C1` [Example 80], the “PI3KA_FL Ki” value was 1.247 nM.

Consider `CNS(=O)(=O)N1CC[C@@H](N2CCc3c(-c4cnc(N)nc4)nc(N4CCOCC4)nc32)C1` [Example 81], for which the “PI3KA_FL Ki” value was determined as 0.788 nM.

As for `C[C@H]1COCCN1c1nc(-c2cnc(N)nc2)c2c(n1)N([C@@H]1CCN(S(C)(=O)=O)C1)CC2` [Example 83], the “PI3KA_FL Ki” value worked out at 0.761 nM.

For `Nc1ncc(-c2nc(N3CCOCC3)nc3c2CCN3[C@@H]2CCN(S(N)(=O)=O)C2)cn1` [Example 84], the “PI3KA_FL Ki” value is given as 3.507 nM.

As for `NC(=O)N1CC(N2CCc3c(-c4cnc(N)nc4)nc(N4CCOCC4)nc32)C1` [Example 86], the “PI3KA_FL Ki” value was determined as 3.673 nM.

As to `C[C@H]1COCCN1c1nc(-c2cnc(N)nc2)c2c(n1)N(C1CC(F)(F)C1)CC2` [Example 87], the “PI3KA_FL Ki” value is listed as 0.462 nM.

In the case of `C[C@H]1COCCN1c1nc(-c2cnc(N)nc2)c2c(n1)N([C@H]1C[C@H](N(C)S(C)(=O)=O)C1)CC2` [Example 90], the “PI3KA_FL Ki” value turned out to be 0.403 nM.

On to `CNS(=O)(=O)N1CCC[C@H](N2CCc3c(-c4cnc(N)nc4)nc(N4CCOCC4)nc32)C1` [Example 91], for which the “PI3KA_FL Ki” value worked out at 1.472 nM.

In the case of `CC(C)[C@@H](O)C(=O)N(C)[C@H]1C[C@H](N2CCc3c(-c4cnc(N)nc4)nc(N4CCOC[C@@H]4C)nc32)C1` [Example 94], the “PI3KA_FL Ki” value is 2.371 nM.

As for `CC(=O)N1CC[C@H](N2CCc3c(-c4cnc(N)nc4)nc(N4CCOC[C@@H]4C)nc32)C1` [Example 96], the “PI3KA_FL Ki” value is given as 2.093 nM.

Take `CNS(=O)(=O)N1CCC[C@@H](N2CCc3c(-c4cnc(N)nc4)nc(N4CCOCC4)nc32)C1` [Example 97]: the “PI3KA_FL Ki” value is 3.632 nM.

Consider `CO[C@@H]1CN(C(C)=O)C[C@H]1N1CCc2c(-c3cnc(N)nc3)nc(N3CCOC[C@@H]3C)nc21` [Example 98], for which the “PI3KA_FL Ki” value was determined as 1.244 nM.
